Earlier results on three molecules are cited in patent US6800616B2, “Treatment of HIV infections” (SuperGen, Inc., priority 1998, dated 2004).

Molecules are shown by their SMILES.

The subject of data set [1] is resting normal human lymphocytes.
The target of data set [2] is T1, adenosine deaminase (ADA) (Homo sapiens, UniProt P00813).
T1 sequence (P00813 1-363): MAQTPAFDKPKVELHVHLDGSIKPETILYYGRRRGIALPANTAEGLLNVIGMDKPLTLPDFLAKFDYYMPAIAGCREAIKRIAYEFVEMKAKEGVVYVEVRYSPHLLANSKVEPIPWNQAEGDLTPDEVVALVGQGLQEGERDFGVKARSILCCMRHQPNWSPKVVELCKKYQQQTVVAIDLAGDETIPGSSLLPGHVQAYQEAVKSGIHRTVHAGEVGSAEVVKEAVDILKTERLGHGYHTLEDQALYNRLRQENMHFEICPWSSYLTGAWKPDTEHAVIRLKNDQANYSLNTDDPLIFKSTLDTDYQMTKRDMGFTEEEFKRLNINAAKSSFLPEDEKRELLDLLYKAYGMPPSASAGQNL

In data set [3] the test system is T cells, CD4+ subset. The following applies: patients given DCF, FLU or 2CDA.

In the case of `Nc1nc(Cl)nc2c1ncn2[C@H]1C[C@H](O)[C@@H](CO)O1` [2CDA, 2-chloro-2′-deoxyadenosine], the “toxicity to resting lymphocytes” value in data set [1] is recorded as “selectively harm resting normal human lymphocytes”. The “resistance to ADA” value in data set [2] is reported as “rather resistant to the enzyme”. Also, in data set [3], the “frequency of opportunistic infections” value was “increased frequency of opportunistic infections” and the lymphopenia upon administration result is given as “prolonged lymphopenia predominating in T cells, especially in the CD4+ subset”.
With `OC[C@H]1O[C@@H](n2cnc3c2NC=NC[C@H]3O)C[C@@H]1O` [DCF, 2′-deoxycoformycin], in data set [3], the “frequency of opportunistic infections” value is “increased frequency of opportunistic infections” and the lymphopenia upon administration result is “prolonged lymphopenia predominating in T cells, especially in the CD4+ subset”.
For `Nc1nc(F)nc2c1ncn2[C@@H]1O[C@H](COP(=O)(O)O)[C@@H](O)[C@@H]1O` [FLU, fludarabine monophosphate], the “resistance to ADA” value in data set [2] is “rather resistant to the enzyme”. Moreover, in data set [3], the “frequency of opportunistic infections” value is on record as “increased frequency of opportunistic infections” and the lymphopenia upon administration result was “prolonged lymphopenia predominating in T cells, especially in the CD4+ subset”.
